US10859504B2, “Degradable cationic surfactants and use thereof in enhancing chemiluminescence” (Siemens Healthcare Diagnostics Inc., priority 2013, dated 2020)
One block for each compound: values may come before it.

What was measured:
[1] = cited from earlier work
[2] = Chemiluminescence measurement of anti-TSH antibody conjugate of acridinium ester 3c with cationic surfactants; settings: for Observed enhancement (fold) of chemiluminescence: no surfactant control = 1; for Observed acceleration of emission kinetics (time to >90% emission): without surfactant 62.5 seconds
Method: (§1) To study the impact of degradable cationic surfactants on acridinium ester chemiluminescence, two exemplary cationic surfactants containing cleavable linkages (FIG. 2A) were selected. The synthetic schemes for the two surfactants are illustrated in FIGS. 3-4 and described in Examples 1 and 2 above. Both surfactants were dissolved in Reagent 1 (0.1 M nitric acid containing 0.5% hydrogen peroxide) at five times their reported CMCs in water. CTAC dissolved in Reagent 2 (0.25 M NaOH) was used as the control surfactant. The two carbonate and amide cationic surfactants (FIG. 2A) were dissolved in Reagent 1 to preserve stability, especially during long term storage (Stjerndahl and Holmberg, J. Colloid and Interface Sci., 2005, 291, 570-576). Three acridinium esters (FIG. 2B, compounds 3a, 3b and 3c) were used to make protein conjugates of an anti-TSH antibody (TS=thyroid stimulating hormone) as described in the literature (Natrajan et al, Org. Biomol. Chem., 2011, 9, 5092-5103; Natrajan et al, Org. Biomol. Chem., 2012, 10, 3432-3447). The conjugates contained approximately 5 labels. The conjugates were stored at 4° C. in buffer and chemiluminescence from each conjugate was measured in the absence of surfactant and in the presence of CTAC as well as cationic surfactants 1 and 2 (Tables 1-3, FIGS. 5-7). The ability of each surfactant to (a) increase total light output and (b) accelerate emission kinetics was evaluated over a period of 80 days.
(§2) Chemiluminescence of anti-TSH antibody conjugates of acridinium esters 3a, 3b and 3c (FIG. 2B) was measured on an Autolumat LB953 Plus luininometer from Behold Technologies. The conjugates, ˜2 mg/mL containing approximately five labels, were serially diluted 10^5-fold for chemiluminescence measurements in an aqueous buffer of 10 mM disodium hydrogen phosphate, 0.15 M NaCl and 8 mM sodium azide and 0.015 mM bovine serum albumin (BSA), pH 8.0. A 0.010 mL volume of each diluted acridinium ester sample was dispensed into the bottom of a cuvette. Cuvettes were placed into the primed LB953 and the chemiluminescence reaction was initiated with the sequential addition of 0.3 mL of Reagent 1, a solution of 0.5% hydrogen peroxide in 0.1 M nitric acid followed by the addition of 0.3 mL of Reagent 2, a solution of 0.25 M sodium hydroxide. For measurements in the presence of CTAC, the surfactant (7 mM) was included in Reagent 2. For measurements in the presence of the cationic amide surfactant 1 or the cationic carbonate surfactant 2, each surfactant was dissolved in Reagent 1 at 3.2 mM (surfactant 1) and 2.15 mM (surfactant 2). Each chemiluminescence flash curve was measured in 240 intervals of 0.5 second (120 seconds total time). Each chemiluminescence reaction was carried out a minimum of three times, averaged and converted to a percentage of the chemiluminescence accumulated up to each time interval. The output from the luminometer instrument was expressed as R.L.U.s (Relative Light Units).

[3] = Chemiluminescence measurement of anti-TSH antibody conjugate of acridinium ester 3a with cationic surfactants; settings: for Observed enhancement (fold) of chemiluminescence: no surfactant control = 1; for Observed acceleration of emission kinetics (time to >90% emission): without surfactant 57.5 seconds; for accelerated emission kinetics: as shown in Table 1b, from 57.5 seconds without surfactant
Method: as §1, §2

[4] = Chemiluminescence measurement of anti-TSH antibody conjugate of acridinium ester 3b with cationic surfactants; settings: for Observed enhancement (fold) of chemiluminescence: no surfactant control = 1; for Observed acceleration of emission kinetics (time to >90% emission): without surfactant 49.5 seconds
Method: as §1, §2

[5] = Stability of surfactants in Reagent 1 (0.5% peroxide in 0.1 M nitric acid) on storage; format: physicochemical; settings: for stability in Reagent 1: 0.5% peroxide in 0.1 M nitric acid, 80 days at room temperature, little loss in ability to enhance chemiluminescence; for ability to accelerate light emission after storage: 80 days of storage at room temperature
Method: as §1
For example, for all three acridinium ester conjugates, in comparison to the no surfactant control which was assigned a relative light yield of one, total light yield was increased approximately 2.5-4-fold for 3a, 3-5-fold for 3b and 3-4.5-fold for 3c (Tables 1a, 2a and 3a) for CTAC as well as surfactants 1 and 2. […] Even at day 80, the fold of increased light emission using surfactant 2 remains to be about 80% (2.8/3.5) of CTAC. Similarly, the fold of increased light emission using Surfactant 1 is about 89% (3.1/3.5) on day 1, and 74% (2.6/3.5) on day 80 compared to CTAC.
Furthermore, both surfactants 1 and 2 were very effective in accelerating light emission from the acridinium ester antibody conjugates (Tables 1b, 2b and 3b, FIGS. 5-7). […] In the presence of CTAC or the two cationic surfactants 1 and 2, emission times were compressed to <3 seconds for the conjugates of all three acridinium ester labels.

Structure (SMILES): CCCCCCCCCCCCCCCC[N+](C)(C)C.[Cl-] [CTAC, cetyltrimethylammonium chloride, reference compound]
- increase of overall light output ([1]; acridinium ester labels and their conjugates): 3-4 fold
- emission time of the labels ([1]; compressed from approximately 60 s, 7 mM CTAC in 0.25 M sodium hydroxide): < 5 s
- Observed enhancement (fold) of chemiluminescence ([2]; Day 1): 4.1 fold
- Observed acceleration of emission kinetics (time to >90% emission) ([2]; Day 1): 2.0 s
- Observed enhancement (fold) of chemiluminescence ([2]; Day 10): 4.3 fold
- Observed acceleration of emission kinetics (time to >90% emission) ([2]; Day 10): 2.0 s
- Observed enhancement (fold) of chemiluminescence ([2]; Day 20): 4.6 fold
- Observed acceleration of emission kinetics (time to >90% emission) ([2]; Day 20): 2.5 s
- Observed enhancement (fold) of chemiluminescence ([2]; Day 40): 3.9 fold
- Observed acceleration of emission kinetics (time to >90% emission) ([2]; Day 40): 2.5 s
- Observed enhancement (fold) of chemiluminescence ([2]; Day 80): 4.0 fold
- Observed acceleration of emission kinetics (time to >90% emission) ([2]; Day 80): 2.5 s
- Observed enhancement (fold) of chemiluminescence ([3]; Day 1): 3.5 fold
- Observed acceleration of emission kinetics (time to >90% emission) ([3]; Day 1): 1.5 s
- Observed enhancement (fold) of chemiluminescence ([3]; Day 10): 3.6 fold
- Observed acceleration of emission kinetics (time to >90% emission) ([3]; Day 10): 1.5 s
- Observed enhancement (fold) of chemiluminescence ([3]; Day 20): 4.0 fold
- Observed acceleration of emission kinetics (time to >90% emission) ([3]; Day 20): 1.5 s
- Observed enhancement (fold) of chemiluminescence ([3]; Day 40): 3.4 fold
- Observed acceleration of emission kinetics (time to >90% emission) ([3]; Day 40): 1.5 s
- Observed enhancement (fold) of chemiluminescence ([3]; Day 80): 3.5 fold
- Observed acceleration of emission kinetics (time to >90% emission) ([3]; Day 80): 1.5 s
- accelerated emission kinetics [3]: 1.5 s
- Observed enhancement (fold) of chemiluminescence ([4]; Day 1): 5.3 fold
- Observed acceleration of emission kinetics (time to >90% emission) ([4]; Day 1): 1.0 s
- Observed enhancement (fold) of chemiluminescence ([4]; Day 10): 5.2 fold
- Observed acceleration of emission kinetics (time to >90% emission) ([4]; Day 10): 1.0 s
- Observed enhancement (fold) of chemiluminescence ([4]; Day 20): 5.5 fold
- Observed acceleration of emission kinetics (time to >90% emission) ([4]; Day 20): 1.0 s
- Observed enhancement (fold) of chemiluminescence ([4]; Day 40): 4.2 fold
- Observed acceleration of emission kinetics (time to >90% emission) ([4]; Day 40): 1.0 s
- Observed enhancement (fold) of chemiluminescence ([4]; Day 80): 4.6 fold
- Observed acceleration of emission kinetics (time to >90% emission) ([4]; Day 80): 1.0 s

- stability in Reagent 1 [5]: quite stable
- ability to accelerate light emission after storage [5]: did not diminish
Structure (SMILES): CCCCCCCCCCCCCCCC(=O)NCC[N+](C)(C)C [surfactant 1]
- Observed enhancement (fold) of chemiluminescence ([2]; Day 1): 3.8 fold
- Observed acceleration of emission kinetics (time to >90% emission) ([2]; Day 1): 2.0 s
- Observed enhancement (fold) of chemiluminescence ([2]; Day 10): 3.8 fold
- Observed acceleration of emission kinetics (time to >90% emission) ([2]; Day 10): 2.0 s
- Observed enhancement (fold) of chemiluminescence ([2]; Day 20): 4.1 fold
- Observed acceleration of emission kinetics (time to >90% emission) ([2]; Day 20): 2.0 s
- Observed enhancement (fold) of chemiluminescence ([2]; Day 40): 3.2 fold
- Observed acceleration of emission kinetics (time to >90% emission) ([2]; Day 40): 2.0 s
- Observed enhancement (fold) of chemiluminescence ([2]; Day 80): 3.0 fold
- Observed acceleration of emission kinetics (time to >90% emission) ([2]; Day 80): 2.0 s
- Observed enhancement (fold) of chemiluminescence ([3]; Day 1): 3.1 fold
- Observed acceleration of emission kinetics (time to >90% emission) ([3]; Day 1): 1.0 s
- Observed enhancement (fold) of chemiluminescence ([3]; Day 10): 3.1 fold
- Observed acceleration of emission kinetics (time to >90% emission) ([3]; Day 10): 1.0 s
- Observed enhancement (fold) of chemiluminescence ([3]; Day 20): 3.4 fold
- Observed acceleration of emission kinetics (time to >90% emission) ([3]; Day 20): 1.0 s
- Observed enhancement (fold) of chemiluminescence ([3]; Day 40): 2.6 fold
- Observed acceleration of emission kinetics (time to >90% emission) ([3]; Day 40): 1.0 s
- Observed enhancement (fold) of chemiluminescence ([3]; Day 80): 2.6 fold
- Observed acceleration of emission kinetics (time to >90% emission) ([3]; Day 80): 1.0 s
- accelerated emission kinetics [3]: 1.0 s
- fold of increased light emission compared to CTAC ([3]; day 1): about 89%
- fold of increased light emission compared to CTAC ([3]; day 80): ~74%
- Observed enhancement (fold) of chemiluminescence ([4]; Day 1): 4.5 fold
- Observed acceleration of emission kinetics (time to >90% emission) ([4]; Day 1): 1.0 s
- Observed enhancement (fold) of chemiluminescence ([4]; Day 10): 4.4 fold
- Observed acceleration of emission kinetics (time to >90% emission) ([4]; Day 10): 0.5 s
- Observed enhancement (fold) of chemiluminescence ([4]; Day 20): 4.7 fold
- Observed acceleration of emission kinetics (time to >90% emission) ([4]; Day 20): 0.5 s
- Observed enhancement (fold) of chemiluminescence ([4]; Day 40): 3.4 fold
- Observed acceleration of emission kinetics (time to >90% emission) ([4]; Day 40): 0.5 s
- Observed enhancement (fold) of chemiluminescence ([4]; Day 80): 3.4 fold
- Observed acceleration of emission kinetics (time to >90% emission) ([4]; Day 80): 0.5 s

- stability in Reagent 1 [5]: quite stable
- ability to accelerate light emission after storage [5]: did not diminish
Structure (SMILES): CCCCCCCCCCCCOC(=O)OCCCC[N+](C)(C)C [surfactant 2]
- Observed enhancement (fold) of chemiluminescence ([2]; Day 1): 4.2 fold
- Observed acceleration of emission kinetics (time to >90% emission) ([2]; Day 1): 1.0 s
- Observed enhancement (fold) of chemiluminescence ([2]; Day 10): 4.2 fold
- Observed acceleration of emission kinetics (time to >90% emission) ([2]; Day 10): 1.0 s
- Observed enhancement (fold) of chemiluminescence ([2]; Day 20): 4.4 fold
- Observed acceleration of emission kinetics (time to >90% emission) ([2]; Day 20): 1.5 s
- Observed enhancement (fold) of chemiluminescence ([2]; Day 40): 3.7 fold
- Observed acceleration of emission kinetics (time to >90% emission) ([2]; Day 40): 1.5 s
- Observed enhancement (fold) of chemiluminescence ([2]; Day 80): 3.5 fold
- Observed acceleration of emission kinetics (time to >90% emission) ([2]; Day 80): 1.5 s
- Observed enhancement (fold) of chemiluminescence ([3]; Day 1): 3.5 fold
- Observed acceleration of emission kinetics (time to >90% emission) ([3]; Day 1): 1.0 s
- Observed enhancement (fold) of chemiluminescence ([3]; Day 10): 3.6 fold
- Observed acceleration of emission kinetics (time to >90% emission) ([3]; Day 10): 1.0 s
- Observed enhancement (fold) of chemiluminescence ([3]; Day 20): 3.7 fold
- Observed acceleration of emission kinetics (time to >90% emission) ([3]; Day 20): 1.0 s
- Observed enhancement (fold) of chemiluminescence ([3]; Day 40): 3.2 fold
- Observed acceleration of emission kinetics (time to >90% emission) ([3]; Day 40): 1.0 s
- Observed enhancement (fold) of chemiluminescence ([3]; Day 80): 2.8 fold
- Observed acceleration of emission kinetics (time to >90% emission) ([3]; Day 80): 1.0 s
- accelerated emission kinetics [3]: 1.0 s
- fold of increased light emission compared to CTAC ([3]; day 80): about 80%
- effectiveness in enhancing chemiluminescence relative to CTAC ([3]; within at least the first 10 days (Table 1a)): as effective as CTAC
- Observed enhancement (fold) of chemiluminescence ([4]; Day 1): 5.0 fold
- Observed acceleration of emission kinetics (time to >90% emission) ([4]; Day 1): 0.5 s
- Observed enhancement (fold) of chemiluminescence ([4]; Day 10): 5.2 fold
- Observed acceleration of emission kinetics (time to >90% emission) ([4]; Day 10): 0.5 s
- Observed enhancement (fold) of chemiluminescence ([4]; Day 20): 5.2 fold
- Observed acceleration of emission kinetics (time to >90% emission) ([4]; Day 20): 0.5 s
- Observed enhancement (fold) of chemiluminescence ([4]; Day 40): 3.9 fold
- Observed acceleration of emission kinetics (time to >90% emission) ([4]; Day 40): 0.5 s
- Observed enhancement (fold) of chemiluminescence ([4]; Day 80): 4.1 fold
- Observed acceleration of emission kinetics (time to >90% emission) ([4]; Day 80): 0.5 s
